Tested on: A2780 cells
Test: Expression of the isolated cDNA fragment (differential display, RT-PCR) in A2780 cells treated with cytotoxic agents
Type: cell-based, human
Conditions: for expression of the cDNA fragment: A2780 cells after treatment with the compound
Method: Human ovary carcinoma A2780 cells were treated for 1 hour with an antitumor derivative of distamycin-A at its 50% growth-inhibiting concentration; at the end of the treatment and after 6 and 24 hours the total RNA was isolated by column extraction (SVTotal RNA, Promega Italia) and reverse-transcribed using poly-T primers as indicated in the differential-display kit (GenHunter). The fragments thus obtained were separated on denaturing polyacrylamide gel and detected by autoradiography. The bands whose intensity differed from controls were isolated and purified. One of them (fragment 1), after purification and ^32P-labeling (rediprime kit, Amersham), was used as probe in Northern Blot experiments. The RNA from the same cells was separated on agarose gel, transferred onto nylon membrane and hybridized with the probe.
Cells A2780 were treated with taxol and cisplatin (DDP) and the RNA was extracted before and 24 hours after the treatment. […] A fragment of beta-actin gene was used as internal control.

| Compound | expression of the cDNA fragment | specific mRNA band by RT-PCR versus control cells (A2780 cells, RNA 24 hours after treatment, beta-actin internal control) |
| --- | --- | --- |
| CC(=O)O[C@H]1C(=O)[C@@]2(C)[C@H]([C@H](OC(=O)c3ccccc3)[C@]3(O)C[C@H](OC(=O)[C@H](O)[C@@H](NC(=O)c4ccccc4)c4ccccc4)C(C)=C1C3(C)C)[C@]1(OC(C)=O)CO[C@@H]1C[C@@H]2O [taxol] | increased production of the same fragment |  |
| O=c1[nH]cc(F)c(=O)[nH]1 [fluorouracil] | increased production of the same fragment |  |
| N.N.[Cl][Pt][Cl] [cisplatin] | increased production of the same fragment | more intense than that of control cells |
| COc1cccc2c1C(=O)c1c(O)c3c(c(O)c1C2=O)C[C@@](O)(C(=O)CO)C[C@@H]3O[C@H]1C[C@H](N)[C@H](O)[C@H](C)O1 [doxorubicin] | increased production of the same fragment |  |
